Patent US11478471B2, “Methods and compositions for treating diabetes, metabolic syndrome and other conditions” (priority 2005, dated 2022)
≈ marks a conversion by molar mass, not a printed value. Read-outs that look alike come from different tables or passages of the source.

Tests used:
[1] = Toxicokinetics in the 28 day dog study of DIO-902 (with racemic ketoconazole group a); settings: male, beagle, plasma, po, dogs; for Tmax: Tmax Range; for AUC(0-t): AUC(0-12); for concentration at 0 h / concentration at 1 h / concentration at 2 h / concentration at 4 h / concentration at 8 h / concentration at 12 h: Drug concentration in plasma;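 for all read-outs here: beagle dogs dosed orally once daily within a 28-day GLP study, 3 animals per sex per group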
Saccharomyces cerevisiae = assay: Antifungal MIC; type: cell-based; settings: DSM01333, DSM strain 01333, 48 h
Candida parapsilosis = assay: Antifungal MIC; type: cell-based; settings: Lodderomyces parapsilosis, read-out: MIC
testosterone levels = assay: Testosterone levels in rats after oral dosing; type: in vivo, Sprague Dawley rats; settings: for Testosterone levels (mean ± SEM): 4 h after gavage
Excerpt: There was a single control group (dosed with vehicle).
The means of the vehicle treated groups are used as the time zero control point.

[2] = 28 day GLP toxicity study in dogs; settings: 28 days
Candida albicans = assay: Antifungal MIC; type: cell-based
Candida glabrata = assay: Antifungal MIC; type: cell-based; settings: Nakaseomyces glabratus, read-out: MIC
cholesterol levels = assay: Cholesterol levels in rats after oral dosing; type: in vivo, Sprague Dawley rats; settings: single oral 200 mg/kg
Description: The rats were maintained as described above; the drugs were suspended in olive oil, and each rat was dosed once via gastric tube to achieve a dose of 200 mg/kg. All of the rats were dosed at a specific time so that all terminations occurred between 6 and 7 pm. […] Following sacrifice, plasma was prepared, and the concentration of corticosterone in the plasma was determined by ELISA. In the same plasma samples, total cholesterol levels were also determined.

[3] = 6.5 mg/kg, 6.5 mg/kg oral, day 28, M
[4] = 6.5 mg/kg, 6.5 mg/kg oral, day 1, M
[5] = 20 mg/kg, 20 mg/kg oral, day 1, M
[6] = 20 mg/kg, 20 mg/kg oral, day 28, M

## CC(=O)N1CCN(c2ccc(OC[C@@H]3CO[C@@](Cn4ccnc4)(c4ccc(Cl)cc4Cl)O3)cc2)CC1 [DIO-902, 2S,4R cis-1-acetyl-4-[4-[[2-(2,4-dichlorophenyl)-2-(1H-imidazol-1-ylmethyl)-1,3-dioxolan-4-yl]methoxyl]phenyl]piperazine]
[1]; 2 mg/kg, 2 mg/kg oral, day 1, M
  Tmax: 1 to 2 h
[1]; 2 mg/kg, 2 mg/kg oral, day 28, M
  Tmax: 1 to 4 h
[1]; 6.5 mg/kg, 6.5 mg/kg oral, day 1, M, n = 2
  AUC(0-t): 12200 ng·h/mL
[1]; [3]
  AUC(0-t): 14600 ng·h/mL
  Cmax: 2010 ng/mL
  concentration at 0 h: < 250 ng/mL
  concentration at 1 h: 1170 ng/mL
  concentration at 2 h: 1390 ng/mL
  concentration at 4 h: 1540 ng/mL
  concentration at 8 h: 1330 ng/mL
  concentration at 12 h: 880 ng/mL
  Tmax: 1 to 8 h
[1]; [4]
  Cmax: 2000 ng/mL
  concentration at 0 h: < 250 ng/mL
  concentration at 1 h: 1190 ng/mL
  concentration at 2 h: 1620 ng/mL
  concentration at 4 h: 1250 ng/mL
  concentration at 8 h: 410 ng/mL
  concentration at 12 h: 400 ng/mL
  Tmax: 1 to 4 h
[1]; [5]
  AUC(0-t): 60600 ng·h/mL
  Cmax: 9380 ng/mL
  concentration at 0 h: < 250 ng/mL
  concentration at 1 h: 7050 ng/mL
  concentration at 2 h: 8300 ng/mL
  concentration at 4 h: 6150 ng/mL
  concentration at 8 h: 2920 ng/mL
  concentration at 12 h: 6740 ng/mL
  Tmax: 1 to 4 h
[1]; [6]
  AUC(0-t): 80000 ng·h/mL
  Cmax: 9940 ng/mL
  concentration at 0 h: 1190 ng/mL
  concentration at 1 h: 9130 ng/mL
  concentration at 2 h: 9780 ng/mL
  concentration at 4 h: 8170 ng/mL
  concentration at 8 h: 5860 ng/mL
  concentration at 12 h: 4250 ng/mL
  Tmax: 2 to 4 h
Saccharomyces cerevisiae
  MIC: 0.25 µg/mL (≈ 0.47 µM)
Candida parapsilosis; DSM05784, DSM strain 05784, 48 h
  MIC: 0.03 µg/mL (≈ 0.0565 µM)
Candida parapsilosis; DSM11224, DSM strain 11224, 48 h
  MIC: 0.03 µg/mL (≈ 0.0565 µM)
Testosterone levels; 200 mg/kg
  time for testosterone levels to return to normal: ≤ 8 h
Testosterone levels; single oral 50 mg/kg
  Testosterone levels (mean ± SEM): 2.6 ± 0.7 nmol/L
Testosterone levels; single oral 100 mg/kg
  Testosterone levels (mean ± SEM): 0.8 ± 0.3 nmol/L
Testosterone levels; single oral 200 mg/kg, 4 h
  Testosterone levels (mean ± SEM), time course: 0.8 ± 0.2 nmol/L
Testosterone levels; single oral 200 mg/kg
  Testosterone levels (mean ± SEM): 0.2 ± 0.1 nmol/L
Testosterone levels; single oral 200 mg/kg, 8 h
  Testosterone levels (mean ± SEM), time course: 5.9 ± 0.8 nmol/L
Testosterone levels; single oral 200 mg/kg, 12 h
  Testosterone levels (mean ± SEM), time course: 3.4 ± 0.5 nmol/L
Testosterone levels; single oral 200 mg/kg, 16 h
  Testosterone levels (mean ± SEM), time course: 3.9 ± 0.6 nmol/L
Testosterone levels; single oral 200 mg/kg, 20 h
  Testosterone levels (mean ± SEM), time course: 5.2 ± 0.6 nmol/L
Testosterone levels; single oral 200 mg/kg, 24 h
  Testosterone levels (mean ± SEM), time course: 4.4 ± 0.7 nmol/L
Testosterone levels; single oral 400 mg/kg
  Testosterone levels (mean ± SEM): 0.3 ± 0.1 nmol/L
Testosterone levels; single oral 600 mg/kg
  Testosterone levels (mean ± SEM): 0 ± 0 nmol/L
[2]; dogs, 20 mg/kg/day
  QTc: no obvious QTc prolongation
  food eaten less than placebo control group: 25-35%
[2]; dogs, 20 mg/kg/day, females (placebo 0.9 kg)
  body weight gain: 0.14 kg
[2]; dogs, 20 mg/kg/day, males (placebo 1.1 kg)
  body weight gain: 0.25 kg
[2]; dogs, 2, 6.5, 20 mg/kg/day
  change in serum chemistry measures: reduction in cholesterol
  hematology: no hematological changes noted
  ophthalmological and electrocardiographic parameters: no measurable effects
[2]; dogs, any dose
  microscopic findings: no remarkable microscopic findings
Candida albicans; DSM11225, DSM strain 11225, 48 h, read-out: MIC
  MIC: < 0.015 µg/mL
Candida albicans; DSM11943, DSM strain 11943, 48 h, read-out: MIC
  MIC: < 0.015 µg/mL
Candida albicans; DSM11944, DSM strain 11944, 48 h, read-out: MIC
  MIC: < 0.015 µg/mL
Candida albicans; DSM11945, DSM strain 11945, 48 h, read-out: MIC
  MIC: 0.03 µg/mL (≈ 0.0565 µM)
Candida albicans; DSM11948, DSM strain 11948, 48 h, read-out: MIC
  MIC: < 0.015 µg/mL
Candida albicans; DSM11949, 48 h
  MIC: 0.125 µg/mL (≈ 0.235 µM)
Candida albicans; strain 98-St-00799, 48 h, read-out: MIC
  MIC: < 0.015 µg/mL
Candida glabrata; DSM11226, DSM strain 11226, 48 h
  MIC: 0.5 µg/mL (≈ 0.941 µM)
Candida glabrata; DSM11950, DSM strain 11950, 48 h
  MIC: 0.25 µg/mL (≈ 0.47 µM)
Cholesterol levels; 4 h
  Cholesterol Levels (mean ± SEM): 69.6 ± 1.9 mg/dL
Cholesterol levels; 8 h
  Cholesterol Levels (mean ± SEM): 73.5 ± 3.1 mg/dL
Cholesterol levels; 12 h
  Cholesterol Levels (mean ± SEM): 77.3 ± 3.9 mg/dL
Cholesterol levels; 16 h
  Cholesterol Levels (mean ± SEM): 61.9 ± 3.1 mg/dL
Cholesterol levels; 20 h
  Cholesterol Levels (mean ± SEM): 58 ± 1.2 mg/dL
Cholesterol levels; 24 h
  Cholesterol Levels (mean ± SEM): 61.9 ± 3.1 mg/dL
